Reference: US10004701B2, “Methods and compositions for treating infection” (UNIVERSITY OF ROCHESTER, priority 2012, dated 2018)
Counter-ions that a name gives are not always drawn. Like-named read-outs stand apart in the source and are kept apart here.

What was measured:
Test in all cases: AK assay 384-well format, Prestwick library screening
P. aeruginosa = format: cell-based, Pseudomonas aeruginosa; details: 50 μM final drug concentration; for fold induction at 50 µM: Pseudomonas aeruginosa, 3 h
[1] = system: S. aureus strain USA300-0114; format: cell-based, Staphylococcus aureus; details: 50 μM final drug concentration; for fold induction at 50 µM: Staphylococcus aureus, USA300, 3 h
[2] = system: A. baumannii strain 98-37-09; format: cell-based, Acinetobacter baumannii; details: 50 μM final drug concentration; for fold induction at 50 µM: Acinetobacter baumannii, 983709, 3 h
E. coli = format: cell-based, Escherichia coli; details: for fold induction at 50 µM: Escherichia coli, 3 h
E. faecium = format: cell-based, Enterococcus faecium; details: 50 μM final drug concentration; for fold induction at 50 µM: Enterococcus faecium, 3 h
E. cloacae = format: cell-based, Enterobacter cloacae; details: 50 μM final drug concentration; for fold induction at 50 µM: Enterobacter cloacae, 3 h
K. pneumoniae = format: cell-based, Klebsiella pneumoniae; details: 50 μM final drug concentration; for fold induction at 50 µM: Klebsiella pneumoniae, 3 h
[3] = planktonic, cutoff for positive 3-fold increase, read-out: AK-based Prestwick Library Screening Results, P. aeruginosa (fold increase in extracellular AK activity)
[4] = planktonic, cutoff for positive 3-fold increase, read-out: AK-based Prestwick Library Screening Results, S. aureus (fold increase in extracellular AK activity)
[5] = planktonic, cutoff for positive 3-fold increase, read-out: AK-based Prestwick Library Screening Results, A. baumannii (fold increase in extracellular AK activity)
[6] = 50 μM final drug concentration, planktonic, cutoff for positive 3-fold increase, read-out: AK-based Prestwick Library Screening Results, E. coli (fold increase in extracellular AK activity)
[7] = planktonic, cutoff for positive 3-fold increase, read-out: AK-based Prestwick Library Screening Results, E. faecium (fold increase in extracellular AK activity)
[8] = planktonic, cutoff for positive 3-fold increase, read-out: AK-based Prestwick Library Screening Results, E. cloacae (fold increase in extracellular AK activity)
[9] = planktonic, cutoff for positive 3-fold increase, read-out: AK-based Prestwick Library Screening Results, K. pneumoniae (fold increase in extracellular AK activity)

## Cn1c(=O)c2[nH]cnc2n(C)c1=O [Theophylline monohydrate]
P. aeruginosa; […], read-out: AK-based Prestwick Library Screening Results, P. aeruginosa (fold increase in extracellular AK activity)
  fold induction at 50 µM: 1.2
[1]; […], read-out: AK-based Prestwick Library Screening Results, S. aureus (fold increase in extracellular AK activity)
  fold induction at 50 µM: 1.3
[2]; […], read-out: AK-based Prestwick Library Screening Results, A. baumannii (fold increase in extracellular AK activity)
  fold induction at 50 µM: 1.2
E. coli; 50 μM final drug concentration, […], read-out: AK-based Prestwick Library Screening Results, E. coli (fold increase in extracellular AK activity)
  fold induction at 50 µM: 1.2
E. faecium; […], read-out: AK-based Prestwick Library Screening Results, E. faecium (fold increase in extracellular AK activity)
  fold induction at 50 µM: 1
E. cloacae; […], read-out: AK-based Prestwick Library Screening Results, E. cloacae (fold increase in extracellular AK activity)
  fold induction at 50 µM: 1.3
K. pneumoniae; […], read-out: AK-based Prestwick Library Screening Results, K. pneumoniae (fold increase in extracellular AK activity)
  fold induction at 50 µM: 1.1

## CC(C)NCC(O)COc1cccc2ccccc12 (centres unmarked) [Propranolol hydrochloride]
P. aeruginosa; cutoff for positive-scoring molecules 3-fold increase, read-out: AK-based Prestwick Library Screening Results, P. aeruginosa (fold increase in extracellular AK activity)
  fold induction at 50 µM: 1.2
[1]; cutoff for positive-scoring molecules 3-fold increase, read-out: AK-based Prestwick Library Screening Results, S. aureus (fold increase in extracellular AK activity)
  fold induction at 50 µM: 1.4
[2]; cutoff for positive-scoring molecules 3-fold increase, read-out: AK-based Prestwick Library Screening Results, A. baumannii (fold increase in extracellular AK activity)
  fold induction at 50 µM: 1.2
E. coli; 50 μM final drug concentration, cutoff for positive-scoring molecules 3-fold increase, read-out: AK-based Prestwick Library Screening Results, E. coli (fold increase in extracellular AK activity)
  fold induction at 50 µM: 1.2
E. faecium; cutoff for positive-scoring molecules 3-fold increase, read-out: AK-based Prestwick Library Screening Results, E. faecium (fold increase in extracellular AK activity)
  fold induction at 50 µM: 1.1
E. cloacae; cutoff for positive-scoring molecules 3-fold increase, read-out: AK-based Prestwick Library Screening Results, E. cloacae (fold increase in extracellular AK activity)
  fold induction at 50 µM: 1.4
K. pneumoniae; cutoff for positive-scoring molecules 3-fold increase, read-out: AK-based Prestwick Library Screening Results, K. pneumoniae (fold increase in extracellular AK activity)
  fold induction at 50 µM: 1.1

## CN1CCC(=C2c3ccccc3CC(=O)c3sccc32)CC1 [Ketotifen fumarate]
P. aeruginosa; [3]
  fold induction at 50 µM: 1.1
[1]; [4]
  fold induction at 50 µM: 1.1
[2]; [5]
  fold induction at 50 µM: 1.1
E. coli; [6]
  fold induction at 50 µM: 1.3
E. faecium; [7]
  fold induction at 50 µM: 1
E. cloacae; [8]
  fold induction at 50 µM: 1.7
K. pneumoniae; [9]
  fold induction at 50 µM: 0.9

## CC(C)NCC(O)COc1ccc(COCCOC(C)C)cc1 (centres unmarked) [Bisoprolol fumarate]
P. aeruginosa; planktonic P. aeruginosa, 384-well, cutoff for positive-scoring molecules 3-fold increase, read-out: AK-based Prestwick Library Screening Results: P. aeruginosa (increase in extracellular AK activity)
  fold induction at 50 µM: 0.5
[1]; planktonic S. aureus, 384-well, cutoff for positive-scoring molecules 3-fold increase, read-out: AK-based Prestwick Library Screening Results: S. aureus (increase in extracellular AK activity)
  fold induction at 50 µM: 0.6
[2]; planktonic A. baumannii, 384-well, cutoff for positive-scoring molecules 3-fold increase, read-out: AK-based Prestwick Library Screening Results: A. baumannii (increase in extracellular AK activity)
  fold induction at 50 µM: 0.5
E. coli; planktonic E. coli, 50 μM final drug concentration, 384-well, cutoff for positive-scoring molecules 3-fold increase, read-out: AK-based Prestwick Library Screening Results: E. coli (increase in extracellular AK activity)
  fold induction at 50 µM: 0.5
E. faecium; planktonic E. faecium, 384-well, cutoff for positive-scoring molecules 3-fold increase, read-out: AK-based Prestwick Library Screening Results: E. faecium (increase in extracellular AK activity)
  fold induction at 50 µM: 0.9
E. cloacae; planktonic E. cloacae, 384-well, cutoff for positive-scoring molecules 3-fold increase, read-out: AK-based Prestwick Library Screening Results: E. cloacae (increase in extracellular AK activity)
  fold induction at 50 µM: 0.6
K. pneumoniae; planktonic K. pneumoniae, 384-well, cutoff for positive-scoring molecules 3-fold increase, read-out: AK-based Prestwick Library Screening Results: K. pneumoniae (increase in extracellular AK activity)
  fold induction at 50 µM: 0.5

## COc1ccc2[nH]cc(CCNC(C)=O)c2c1 [Melatonin]
P. aeruginosa; [3]
  fold induction at 50 µM: 1.1
[1]; [4]
  fold induction at 50 µM: 1.3
[2]; [5]
  fold induction at 50 µM: 1.2
E. coli; [6]
  fold induction at 50 µM: 0.9
E. faecium; [7]
  fold induction at 50 µM: 1
E. cloacae; [8]
  fold induction at 50 µM: 1.4
K. pneumoniae; [9]
  fold induction at 50 µM: 0.8

## CC1CCC2C(C)C3C(CC4C5CC=C6CC(OC7OC(CO)C(O)C(OC8OC(CO)C(O)C(O)C8O)C7OC7OC(C)C(O)C(O)C7O)CCC6(C)C5CCC43C)N2C1 (stereo not drawn) [Solanine alpha]
P. aeruginosa; planktonic, […]
  AK-based Prestwick Library Screening Results, P. aeruginosa (fold increase in extracellular AK activity): 1.2
[1]; planktonic, […]
  AK-based Prestwick Library Screening Results, S. aureus (fold increase in extracellular AK activity): 1.2
[2]; planktonic, […]
  AK-based Prestwick Library Screening Results, A. baumannii (fold increase in extracellular AK activity): 1.3
E. coli; 50 μM final drug concentration, planktonic, […]
  AK-based Prestwick Library Screening Results, E. coli (fold increase in extracellular AK activity): 1.2
E. faecium; planktonic, […]
  AK-based Prestwick Library Screening Results, E. faecium (fold increase in extracellular AK activity): 1.0
E. cloacae; planktonic, […]
  AK-based Prestwick Library Screening Results, E. cloacae (fold increase in extracellular AK activity): 1.7
K. pneumoniae; planktonic, […]
  AK-based Prestwick Library Screening Results, K. pneumoniae (fold increase in extracellular AK activity): 1.2

## CN(C)CCCN1c2ccccc2Sc2ccc(C(F)(F)F)cc21 [Triflupromazine hydrochloride]
P. aeruginosa; planktonic P. aeruginosa, 384-well, […], read-out: AK-based Prestwick Library Screening Results: P. aeruginosa (increase in extracellular AK activity)
  fold induction at 50 µM: 1
[1]; planktonic S. aureus, 384-well, […], read-out: AK-based Prestwick Library Screening Results: S. aureus (increase in extracellular AK activity)
  fold induction at 50 µM: 1.1
[2]; planktonic A. baumannii, 384-well, […], read-out: AK-based Prestwick Library Screening Results: A. baumannii (increase in extracellular AK activity)
  fold induction at 50 µM: 1.5
E. coli; read-out: AK-based Prestwick Library Screening Results: E. coli (increase in extracellular AK activity)
  fold induction at 50 µM: 1.1
E. faecium; planktonic E. faecium, 384-well, […], read-out: AK-based Prestwick Library Screening Results: E. faecium (increase in extracellular AK activity)
  fold induction at 50 µM: 0.9
E. cloacae; planktonic E. cloacae, 384-well, […], read-out: AK-based Prestwick Library Screening Results: E. cloacae (increase in extracellular AK activity)
  fold induction at 50 µM: 1.6
K. pneumoniae; planktonic K. pneumoniae, 384-well, […], read-out: AK-based Prestwick Library Screening Results: K. pneumoniae (increase in extracellular AK activity)
  fold induction at 50 µM: 1

## CCC(=O)O[C@]1(C(=O)SCF)[C@H](C)C[C@H]2[C@@H]3C[C@H](F)C4=CC(=O)C=C[C@]4(C)[C@@]3(F)[C@@H](O)C[C@@]21C [Fluticasone propionate]
P. aeruginosa; planktonic P. aeruginosa, positive cutoff 3-fold increase, read-out: AK-based Prestwick library screening result, P. aeruginosa (fold increase in extracellular AK activity)
  fold induction at 50 µM: 0.8
[1]; planktonic S. aureus, positive cutoff 3-fold increase, read-out: AK-based Prestwick library screening result, S. aureus (fold increase in extracellular AK activity)
  fold induction at 50 µM: 0.7
[2]; planktonic A. baumannii, positive cutoff 3-fold increase, read-out: AK-based Prestwick library screening result, A. baumannii (fold increase in extracellular AK activity)
  fold induction at 50 µM: 0.8
E. coli; planktonic E. coli, 50 μM final drug concentration, positive cutoff 3-fold increase, read-out: AK-based Prestwick library screening result, E. coli (fold increase in extracellular AK activity)
  fold induction at 50 µM: 0.8
E. faecium; planktonic E. faecium, positive cutoff 3-fold increase, read-out: AK-based Prestwick library screening result, E. faecium (fold increase in extracellular AK activity)
  fold induction at 50 µM: 0.9
E. cloacae; planktonic E. cloacae, positive cutoff 3-fold increase, read-out: AK-based Prestwick library screening result, E. cloacae (fold increase in extracellular AK activity)
  fold induction at 50 µM: 1.5
K. pneumoniae; planktonic K. pneumoniae, positive cutoff 3-fold increase, read-out: AK-based Prestwick library screening result, K. pneumoniae (fold increase in extracellular AK activity)
  fold induction at 50 µM: 0.7
